Measured values published in the supplement of paper PMC8837787.

Tested on: Saccharomyces cerevisiae ABC16-Green Monster
Assay: growth inhibition at single dose (up to 150 µM), below the 70% cut-off for dose-response; higher = more potent
Conditions: 18 h; 30 °C; YPD
Method in brief: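 The entry is percent growth inhibition of drug-sensitive S. cerevisiae ABC16-Green Monster cells. After overnight growth in YPD at 30 °C, cells were diluted to OD600 0.1–0.2 and exposed to each library compound at 150 µM in 200 µl per well, in biological duplicates with untreated cultures beside them, and OD600 was read at 0 h and after 18 h at 30 °C. Any compound under 70% in both replicates was not carried to dose-response.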

| Compound | growth inhibition at single dose [%] |
| --- | --- |
| CC(c1ccc(-c2ccccc2)c(F)c1)c1nn2c(-c3ccco3)nnc2s1 (stereo not given) | < 70 |
| CCc1c(C)c(=N)c2ccccc2n1C | < 70 |
| NC(=O)c1ccsc1NC(=O)CSc1ncc(-c2ccccc2)n1-c1ccccc1 | < 70 |
| CCOc1cc2c(cc1OCC)C(c1cc(C)c(O)c(C)c1)NCC2 (stereo not given) | < 70 |
| COc1ccc(-c2c(C)nn3c(NCc4ccccn4)cc(C)nc23)cc1OC | < 70 |
| CSc1nc(=O)nc(-c2ccc(Cl)cc2)[nH]1 | < 70 |
| c1ccc(NCCNc2nc(-c3ccncc3)nc3ccccc23)nc1 | < 70 |
| COc1ccc(C(=O)NC(c2ccccc2Cl)c2cc(Cl)c3cccnc3c2O)cc1 (stereo not given) | < 70 |
| CC(C)(C)c1cc(C(=O)Nc2cccnc2)cc(C(=O)Nc2cccnc2)c1 | < 70 |
| COc1ccc(-c2cc3ncnc(NCc4ccc(N5CCN(C)CC5)nc4)c3s2)cc1 | < 70 |
| CC(C)c1nc(N2CCN(CC(=O)N3CCCC3)CC2)c(C#N)c2c1CCC2 | < 70 |
| N#Cc1ccc(NCCNc2nc3ccccc3s2)nc1 | < 70 |
| Cn1c(=O)n(C)c2cc(CNCCNc3ccnc4cc(Cl)ccc34)ccc21 | < 70 |
| FC(F)(F)c1cccc(Nc2nc(-c3ccccc3)nc3ncccc23)c1 | < 70 |
| Cc1cccnc1NC(=O)c1cccc(OCc2c(C)noc2C)c1 | < 70 |
| C[C@]12CC[C@H](O)C[C@H]1CCC1C2[C@H](O)C[C@]2(C)[C@@H](C3=CC(=O)OC3)CC[C@]12O (stereo not given in full) | < 70 |
| CC(C)(C)c1ccc(C(=O)Nc2cc(F)ccc2F)s1 | < 70 |
| COc1ccc(-c2nn(C(C)C)c3ncnc(N)c23)cc1OC | < 70 |
| O=C(Nc1ccc(Br)cc1)Nc1cccc(Cl)c1 | < 70 |
| C=C(C)COc1ccc(-c2onc(C)c2-c2ccc(OC)c(OC)c2)c(O)c1 | < 70 |
| COC(=O)c1cc(OC)c(OC)cc1NS(=O)(=O)c1ccc(Cl)cc1 | < 70 |
| Cn1/c(=N/C(=O)c2ccc(=O)[nH]c2)sc2ccccc21 | < 70 |
| Clc1ccc(Cl)c(-c2ccc(CNCCN3CCNCC3)o2)c1 | < 70 |
| CCN1CCN(Cc2ccc(NC(=O)c3cc4ccc5cccnc5c4[nH]3)cc2)CC1 | < 70 |

| Compound | growth inhibition at single dose [%] |
| --- | --- |
| COc1cc(-c2nc(-c3ccccc3)c(-c3ccccc3)[nH]2)cc(OC)c1O | < 70 |
| CC1Cc2cc(C3=NNC(=NC4CC4)SC3)ccc2N1S(C)(=O)=O (stereo not given) | < 70 |
| COc1cc(NC(=O)Cc2nn(C)c(=O)c3ccccc23)ccc1Cl | < 70 |
| CS(=O)(=O)c1ccccc1C(=O)N(Cc1ccccc1)c1ccccc1 | < 70 |
| CCc1ccccc1-n1c(C)cn2c3c(=O)n(C(C(=O)OC)C(C)C)c(=O)n(C)c3nc12 (stereo not given) | < 70 |
| O=C(NC1=NCCS1)c1sc2cc(F)ccc2c1Cl | < 70 |
| COc1ccc(C2NCCc3c2[nH]c2ccccc32)cc1CN1CCN(c2ccc(F)cc2)CC1 (stereo not given) | < 70 |
| CCn1ncc2c(NC3CCOCC3)c(CNC(=O)c3ccnn3C)c(C)nc21 | < 70 |
| Cc1cc(NC(=O)c2ccc(Oc3ccc(Cl)cc3O)o2)no1 | < 70 |
| O=C(Nc1ncccc1O)c1ccc(-n2cnc3ccccc32)cc1 | < 70 |
| COc1cc(C(=O)ON=C(N)Cc2cccc3ccccc23)cc(OC)c1OC | < 70 |
| Cc1ccc(S(=O)(=O)Nc2ccc(CN3CCN(C(=O)c4cccc(C#N)c4)CC3)cc2)cc1 | < 70 |
| CC(C)c1ccc2cc(C(=O)Nc3ccc4c(c3)NC(=O)CO4)[nH]c2c1 | < 70 |
| CC(C)Cc1ccc(C(C)c2nn3c(-c4ccco4)nnc3s2)cc1 (stereo not given) | < 70 |
| NCCCC(N)(C(=O)O)C(F)F (stereo not given) | < 70 |
| c1cc(C2=NCCN2)cc(-c2cc(-c3ccc(C4=NCCN4)cc3)no2)c1 | < 70 |
| CC1S/C(=C\c2nc3ccccc3s2)NC1=O (stereo not given) | < 70 |
| CC(=O)N1CCN(c2ccc(Oc3ccc(Cl)cc3O)cc2)CC1 | < 70 |
| COc1cccc(C=Cc2nc(=O)c3ccccc3o2)c1OC | < 70 |
| Cc1cc(Cl)ccc1NC(=O)CCc1ccc(S(=O)(=O)NCC(C)C)cc1 | < 70 |
| COC(=O)c1c(NC(=O)c2cc3ccccc3oc2=O)sc2c1CCN(Cc1ccccc1)C2 | < 70 |
| Oc1ccccc1CN1CCC2(CCCN(Cc3ccccc3F)C2)C1 (stereo not given) | < 70 |
| O=C(Cn1ncc(Cl)c(Cl)c1=O)N1N=C(c2ccco2)CC1c1cccs1 (stereo not given) | < 70 |
| NS(=O)(=O)c1cncc(-c2ccc3nccc(-c4cn[nH]c4)c3n2)c1 | < 70 |

| Compound | growth inhibition at single dose [%] |
| --- | --- |
| CCOC(=O)C1=CN(C)C=C(C(=O)OCC)C1c1cc(Br)c(OCC)c(OC)c1 | < 70 |
| Cn1c(=O)c2cc(C(=O)NCCCN3CCCCCC3)sc2c2ccccc21 | < 70 |
| CCCn1c(=O)n(CC(=O)Nc2ccc(C)c(C)c2)c(=O)c2c1nc(C(F)(F)F)n2CCOC | < 70 |
| CCOc1cc2c(cc1OCC)C(c1cc(Cl)c(O)c(OCC)c1)NCC2 (stereo not given) | < 70 |
| CCOC(=O)c1c(C)n(-c2ccccc2)c2ccc(OC(=O)c3cc(OC)c(OC)c(OC)c3)cc12 | < 70 |
| COc1nc(Nc2ccc(C(C)C)cc2)nc(OC)n1 | < 70 |
| CN(CC(=O)Nc1ccccc1N1CCCC1)Cc1ccc2ccccc2c1 | < 70 |
| CNC(=O)c1ccc2n1CCN(C(=O)OCc1ccccc1)C2C (stereo not given) | < 70 |
| O=C(CCc1ccco1)NC1CCN(CC2(c3ccc(Cl)cc3)CCC2)CC1 | < 70 |
| COC(=O)Cc1[nH]n(-c2nc3ccccc3s2)c(=O)c1C(C)=NCCO | < 70 |
| C=CCN(C(=O)c1[nH]c(C)c(C(C)=O)c1C)c1nc2c(s1)CCCC2 | < 70 |
| COc1ccc(-c2cc3c(SCC(=O)Nc4cc(C(F)(F)F)ccc4Cl)nccn3n2)cc1 | < 70 |
| COC(=O)c1c(NC(=O)c2c(F)c(F)c(F)c(F)c2F)sc2c1CCCCC2 | < 70 |
| COc1cccc(Nc2nc(NCCO)c3ccccc3n2)c1 | < 70 |
| CCn1c2c(c(=N)c3c1CCC3)CCCC2 | < 70 |
| COc1ccc(-c2cc(NC(=O)c3ccc(F)cc3Cl)ccc2OC)cc1 | < 70 |
| CCOc1ccccc1NC(=O)CN1CCN(C(=O)c2ccco2)CC1 | < 70 |
| Cc1ccc(F)cc1NC(=O)c1cc(Cl)ccc1Nc1ccccc1 | < 70 |
| CC(=O)N1CCc2cc(NC(=O)c3cc(C)n(C4CCCCC4)c3C)ccc21 | < 70 |
| O=C(Cc1ccccc1)NC(c1ccc(Cl)cc1)c1c(O)ccc2ccccc12 (stereo not given) | < 70 |
| CCc1ccc(C(NCc2nc(N)nc(N(C)C)n2)C(C)C)cc1 (stereo not given) | < 70 |
| Nc1nccc2ccc(Oc3ccncc3)cc12 | < 70 |
| CS(=O)(=O)N1CCCc2cc(-c3csc(Nc4ccccn4)n3)ccc21 | < 70 |
| Cc1cc(N2CCN(C)CC2)n2ncc(-c3ccccc3Cl)c2n1 | < 70 |

| Compound | growth inhibition at single dose [%] |
| --- | --- |
| CCCCNCC(O)(c1ccc(Cl)cc1)c1ccc(Cl)cc1 | < 70 |
| CNc1snc(C)c1C(=O)OCc1cc(C(=O)OC)c(C)o1 | < 70 |
| Cc1ccc2c(c1)s/c(=N/C(=O)c1cccs1)n2C | < 70 |
| CN1c2ccccc2N(C)C1c1ccc2c(c1)OCO2 | < 70 |
| c1ccc2cc(OCCNc3ncnc4sccc34)ccc2c1 | < 70 |
| CC(C)c1ccc(C2C3CCc4ccccc4C3=NN2C)cc1 (stereo not given) | < 70 |
| O=C1c2ccc3c4c(ccc(c24)C(=O)N1CCCCO)C(=O)N(CCCCO)C3=O | < 70 |
| Cc1[nH]c2cc(F)cc(F)c2c(=O)c1-c1ccc(Oc2ccc(OC(F)(F)F)cc2)cc1 | < 70 |
| CCc1cc(=O)n(C)c(SC(C)C(=O)Nc2ccc(F)cc2)n1 (stereo not given) | < 70 |
| CCc1nc2ccc(C(=O)NCc3ccc4c(c3)OCO4)cn2c1N(C)Cc1cccs1 | < 70 |
| Cc1c(C)c(C)c(S(=O)(=O)Nc2ccc3c[nH]nc3c2)c(C)c1C | < 70 |
| O=C(O)C1Cc2c([nH]c3ccccc23)C(c2ccc(Cl)cc2Cl)N1 (stereo not given) | < 70 |
| Cc1ccc(Cn2c(N3CCC(C(=O)NCc4cccs4)CC3)nc3ccccc32)cc1 | < 70 |
| Cc1cc(C(=O)C(C)Sc2nnnn2C2CC2)c(C)n1-c1ccccc1 (stereo not given) | < 70 |
| OC(CNCc1ccccc1)Cn1c2ccccc2c2ccccc21 (stereo not given) | < 70 |
| Cc1cc(C)n2nc(C(=O)Nc3cc(C(F)(F)F)ccc3N3CCOCC3)nc2n1 | < 70 |
| CC(C)(C)c1ccc(C(=O)Nc2c3c(nn2-c2cccc(Cl)c2)CSC3)cc1 | < 70 |
| N#Cc1nc(-c2ccccc2F)oc1NCCc1ccccc1 | < 70 |
| Cc1ccc(Nc2nc(-c3ccccn3)cs2)cc1 | < 70 |
| COc1ccc(CN2CCOc3ccc(C(C)(O)CN(C)C)cc3C2)cc1C (stereo not given) | < 70 |
| Cc1nn2c(=O)c3c([nH]c2c1-c1ccc(Cl)cc1)CCCC3 | < 70 |
| COc1ccccc1CNC(=O)CCn1c(=O)[nH]c2ccsc2c1=O | < 70 |
| Cc1ccc(CN2CCC(C(=O)Nc3ccc(-c4cc5ccccc5[nH]4)cc3)CC2)o1 | < 70 |
